Measured values taken from ChEMBL document CHEMBL1137374, “Discovery of 6-N,N-bis(2,2,2-trifluoroethyl)amino- 4-trifluoromethylquinolin-2(1H)-one as a novel selective androgen receptor modulator” (J Med Chem, 2006).
Activity calls are given as the source filed them. No cut-off for these calls is given here.

Tests used:
[1] = biological target: T1, Androgen receptor (Homo sapiens, UniProt P10275)
T1 sequence (P10275 whole entry): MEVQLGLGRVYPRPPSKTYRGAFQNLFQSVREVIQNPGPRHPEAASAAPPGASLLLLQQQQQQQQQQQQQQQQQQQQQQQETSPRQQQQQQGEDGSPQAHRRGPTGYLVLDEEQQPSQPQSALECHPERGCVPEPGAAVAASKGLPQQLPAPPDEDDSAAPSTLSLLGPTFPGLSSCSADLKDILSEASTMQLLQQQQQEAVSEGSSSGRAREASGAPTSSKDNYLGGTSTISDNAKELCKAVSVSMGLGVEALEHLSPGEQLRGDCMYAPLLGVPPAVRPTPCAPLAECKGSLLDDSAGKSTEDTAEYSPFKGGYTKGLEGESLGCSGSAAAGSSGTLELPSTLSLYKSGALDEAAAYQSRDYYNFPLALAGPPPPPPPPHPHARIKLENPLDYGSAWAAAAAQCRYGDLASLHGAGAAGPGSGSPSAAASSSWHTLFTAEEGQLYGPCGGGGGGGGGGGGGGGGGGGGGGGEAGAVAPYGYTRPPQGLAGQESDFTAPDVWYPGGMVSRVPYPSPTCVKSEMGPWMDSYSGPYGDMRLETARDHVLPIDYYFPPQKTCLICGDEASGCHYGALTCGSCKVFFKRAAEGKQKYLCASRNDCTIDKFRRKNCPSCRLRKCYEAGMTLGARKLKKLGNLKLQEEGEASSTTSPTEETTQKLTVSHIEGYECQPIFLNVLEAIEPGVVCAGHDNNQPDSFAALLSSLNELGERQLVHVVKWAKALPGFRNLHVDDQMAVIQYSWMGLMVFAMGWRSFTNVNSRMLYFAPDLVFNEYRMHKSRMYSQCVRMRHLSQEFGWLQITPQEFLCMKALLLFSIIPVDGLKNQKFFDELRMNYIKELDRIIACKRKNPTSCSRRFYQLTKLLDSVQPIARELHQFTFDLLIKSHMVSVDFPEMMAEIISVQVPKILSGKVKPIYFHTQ
Description: Agonist activity at human androgen receptor in CV1 cells measured as stimulation of luciferase reporter gene activity by cotransfection assay

[2] = biological target: T1, Androgen receptor; remark: listed apart in the source
Description: Displacement of [3H]DHT from human androgen receptor expressed in MDA-MB-453 cells by whole cell receptor binding assay

[3] = biological target: T1, Androgen receptor; remark: listed apart in the source
Description: Antagonist activity against human androgen receptor in CV1 cells measured as inhibition of DHT-stimulated luciferase reporter gene activity by cotransfection assay

[4] = biological target: T2, Progesterone receptor (Homo sapiens, UniProt P06401)
T2 sequence (P06401 whole entry): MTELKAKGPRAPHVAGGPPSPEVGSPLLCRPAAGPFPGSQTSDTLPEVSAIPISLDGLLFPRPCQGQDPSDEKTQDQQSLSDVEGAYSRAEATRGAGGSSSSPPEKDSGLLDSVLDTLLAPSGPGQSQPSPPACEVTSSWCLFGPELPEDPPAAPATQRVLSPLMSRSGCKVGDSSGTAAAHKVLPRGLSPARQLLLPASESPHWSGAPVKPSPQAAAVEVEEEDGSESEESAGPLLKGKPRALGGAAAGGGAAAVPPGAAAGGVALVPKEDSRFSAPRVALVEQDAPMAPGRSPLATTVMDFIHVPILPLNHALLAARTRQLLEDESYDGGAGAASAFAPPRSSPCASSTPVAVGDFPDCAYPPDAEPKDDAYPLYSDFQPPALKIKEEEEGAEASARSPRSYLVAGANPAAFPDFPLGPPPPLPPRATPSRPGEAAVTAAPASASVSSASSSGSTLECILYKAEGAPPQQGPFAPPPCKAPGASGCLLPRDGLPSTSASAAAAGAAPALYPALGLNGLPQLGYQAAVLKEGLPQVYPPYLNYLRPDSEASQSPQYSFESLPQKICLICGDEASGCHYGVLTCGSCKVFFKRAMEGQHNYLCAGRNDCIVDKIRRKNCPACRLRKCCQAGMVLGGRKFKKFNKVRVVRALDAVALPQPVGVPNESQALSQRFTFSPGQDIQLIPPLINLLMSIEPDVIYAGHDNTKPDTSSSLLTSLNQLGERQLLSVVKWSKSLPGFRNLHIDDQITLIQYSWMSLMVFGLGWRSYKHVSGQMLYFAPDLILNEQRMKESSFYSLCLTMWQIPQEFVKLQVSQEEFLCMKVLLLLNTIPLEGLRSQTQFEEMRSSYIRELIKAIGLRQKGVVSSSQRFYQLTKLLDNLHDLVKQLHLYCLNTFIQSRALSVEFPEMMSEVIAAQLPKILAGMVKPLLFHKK
Description: Binding affinity to progesterone receptor

[5] = organism: Rattus norvegicus; assay: Anabolic activity in orchidectomized rat measured as increase in levator ani muscle weight relative to intact rat; format: functional
[6] = biological target: T3, Mineralocorticoid receptor (Homo sapiens, UniProt P08235); assay: Binding affinity to mineralocorticoid receptor
T3 sequence (P08235 whole entry): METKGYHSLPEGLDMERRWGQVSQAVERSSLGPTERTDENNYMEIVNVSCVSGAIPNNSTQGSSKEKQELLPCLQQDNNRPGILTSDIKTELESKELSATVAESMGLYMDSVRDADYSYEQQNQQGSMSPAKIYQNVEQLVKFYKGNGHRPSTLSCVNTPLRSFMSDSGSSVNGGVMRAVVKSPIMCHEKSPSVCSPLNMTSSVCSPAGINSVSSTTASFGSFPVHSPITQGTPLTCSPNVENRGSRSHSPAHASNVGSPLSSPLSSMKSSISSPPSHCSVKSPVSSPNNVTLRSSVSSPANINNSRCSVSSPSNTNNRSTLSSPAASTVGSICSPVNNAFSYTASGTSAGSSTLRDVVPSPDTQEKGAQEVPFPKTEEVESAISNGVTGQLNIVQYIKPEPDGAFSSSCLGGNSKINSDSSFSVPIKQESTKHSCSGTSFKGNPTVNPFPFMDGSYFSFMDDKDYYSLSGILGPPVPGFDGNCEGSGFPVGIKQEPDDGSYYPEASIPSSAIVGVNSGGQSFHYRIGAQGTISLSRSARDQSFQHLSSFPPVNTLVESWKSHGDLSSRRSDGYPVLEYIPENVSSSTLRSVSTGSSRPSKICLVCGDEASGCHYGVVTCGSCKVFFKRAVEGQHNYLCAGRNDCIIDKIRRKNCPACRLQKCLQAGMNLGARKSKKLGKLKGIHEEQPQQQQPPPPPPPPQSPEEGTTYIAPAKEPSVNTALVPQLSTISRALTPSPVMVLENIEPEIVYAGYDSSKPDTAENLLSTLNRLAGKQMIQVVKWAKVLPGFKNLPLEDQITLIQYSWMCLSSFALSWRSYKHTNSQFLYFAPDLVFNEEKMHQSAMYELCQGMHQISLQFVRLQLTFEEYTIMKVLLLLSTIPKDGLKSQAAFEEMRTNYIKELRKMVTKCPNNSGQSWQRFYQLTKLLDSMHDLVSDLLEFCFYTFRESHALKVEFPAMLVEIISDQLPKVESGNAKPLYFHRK

[7] = tested on: Rattus norvegicus; assay: Anabolic activity in orchidectomized rat at 3.0 mg/kg, po measured as increase in levator ani muscle weight to eugonadal level; format: functional, organism-based; design: dose 3 mg/kg
[8] = biological target: T4, Estrogen receptor (Homo sapiens, UniProt P03372)
T4 sequence (P03372 whole entry): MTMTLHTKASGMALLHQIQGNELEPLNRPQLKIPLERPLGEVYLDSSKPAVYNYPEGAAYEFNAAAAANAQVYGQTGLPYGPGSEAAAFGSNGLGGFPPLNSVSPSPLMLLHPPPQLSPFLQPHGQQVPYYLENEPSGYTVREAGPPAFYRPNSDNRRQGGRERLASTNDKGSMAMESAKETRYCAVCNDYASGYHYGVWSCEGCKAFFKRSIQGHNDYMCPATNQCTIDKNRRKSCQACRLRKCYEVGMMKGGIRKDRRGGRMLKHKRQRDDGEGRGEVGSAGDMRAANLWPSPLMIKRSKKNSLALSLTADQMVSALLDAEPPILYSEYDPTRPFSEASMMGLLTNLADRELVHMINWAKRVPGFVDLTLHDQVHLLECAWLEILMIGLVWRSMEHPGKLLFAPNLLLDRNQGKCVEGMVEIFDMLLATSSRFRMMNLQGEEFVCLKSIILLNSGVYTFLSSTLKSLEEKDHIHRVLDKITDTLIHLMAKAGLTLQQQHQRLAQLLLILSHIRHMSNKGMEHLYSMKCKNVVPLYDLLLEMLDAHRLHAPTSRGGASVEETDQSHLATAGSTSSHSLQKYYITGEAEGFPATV
Description: Binding affinity to estrogen receptor

[9] = tested on: Rattus norvegicus; assay: Androgenic activity in orchidectomized rat at 100 mg/kg, po measured as increase in ventral prostate weight to intact level; format: functional, organism-based; design: dose 100 mg/kg; settings: Prostate gland
[10] = biological target: T5, Glucocorticoid receptor (Homo sapiens, UniProt P04150); assay: Binding affinity to glucocorticoid receptor
T5 sequence (P04150 whole entry): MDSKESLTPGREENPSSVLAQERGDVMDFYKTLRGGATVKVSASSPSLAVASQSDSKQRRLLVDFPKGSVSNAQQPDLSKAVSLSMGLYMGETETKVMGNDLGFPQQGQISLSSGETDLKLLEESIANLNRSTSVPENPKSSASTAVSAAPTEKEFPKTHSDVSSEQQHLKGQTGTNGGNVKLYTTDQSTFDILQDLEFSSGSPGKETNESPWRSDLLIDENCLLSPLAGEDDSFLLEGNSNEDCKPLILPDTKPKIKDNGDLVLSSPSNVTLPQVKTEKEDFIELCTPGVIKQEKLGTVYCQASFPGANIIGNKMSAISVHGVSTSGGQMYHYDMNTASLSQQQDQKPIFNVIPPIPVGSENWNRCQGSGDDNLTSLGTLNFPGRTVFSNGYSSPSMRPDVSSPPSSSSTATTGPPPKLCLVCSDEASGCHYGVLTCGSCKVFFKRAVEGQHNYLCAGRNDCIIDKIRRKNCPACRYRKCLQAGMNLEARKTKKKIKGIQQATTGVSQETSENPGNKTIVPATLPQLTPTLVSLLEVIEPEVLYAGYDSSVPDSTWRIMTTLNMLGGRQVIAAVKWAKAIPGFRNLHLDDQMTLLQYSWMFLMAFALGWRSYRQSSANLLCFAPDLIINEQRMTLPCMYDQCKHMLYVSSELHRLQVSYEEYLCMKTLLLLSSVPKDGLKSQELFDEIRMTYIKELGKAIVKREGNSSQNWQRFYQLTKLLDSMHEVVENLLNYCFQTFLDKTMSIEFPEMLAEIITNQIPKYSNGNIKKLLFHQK

[11] = tested on: Rattus norvegicus; assay: Androgenic activity in orchidectomized rat at 2.0 mg/kg, sc measured as increase in ventral prostate weight to eugonadal level; format: functional, organism-based; design: dose 2 mg/kg; settings: Prostate gland
[12] = tested on: Rattus norvegicus; assay: Anabolic activity in orchidectomized rat at 2.0 mg/kg, sc measured as increase in levator ani muscle weight to eugonadal level; format: functional, organism-based; design: dose 2 mg/kg

SMILES: Oc1cc(C(F)(F)F)c2cc(N(CC3CC3)CC(F)(F)F)ccc2n1
- EC50 [1]: 0.0028 µM
- Ki [2]: 0.0071 µM
- IC50 [3]: > 10 µM

SMILES: O=c1cc(C(F)(F)F)c2cc(N(CC(F)(F)F)CC(F)(F)F)ccc2[nH]1
- Ki [4]: > 1 µM
- Activity [5]: 150%
- Ki [6]: > 1 µM
- Activity [7]: Active
- Ki [8]: > 1 µM
- Activity [9]: Active
- Ki [10]: > 1 µM

SMILES: C[C@]12CC[C@H]3[C@@H](CCC4=CC(=O)CC[C@@]43C)[C@@H]1CC[C@@H]2O
- Activity [11]: Active
- Activity [12]: Active
